Where two headings read alike, the source gives them in different places. Marks after values point to notes of the source that are not given here.
Tests used:
Puccinia recondita = test: Example B: in vivo preventive test on Puccinia recondita (brown rust on wheat); conditions: wheat plants, preventive spray, evaluated 11 days after inoculation
Protocol: (§1) The young plants of wheat are treated by spraying the active ingredient prepared as described above. Control plants are treated only with an aqueous solution of acetone/Dimethyl sulfoxide/Tween®. After 24 hours, the plants are contaminated by spraying the leaves with an aqueous suspension of Puccinia recondita spores.

Pyrenophora teres = test: Example C: in vivo preventive test on Pyrenophora teres (net blotch on barley); conditions: barley plants, preventive spray, evaluated 14 days after inoculation
Protocol: as §1, with “barley” for “wheat”, “Pyrenophora teres” for “Puccinia recondita”

Septoria tritici = test: Example D: in vivo preventive test on Septoria tritici (leaf spot on wheat); conditions: wheat plants, preventive spray, evaluated 24 days after inoculation
Protocol: as §1, with “Septoria tritici” for “Puccinia recondita”

Sphaerotheca fuliginea = test: Example E: in vivo preventive test on Sphaerotheca fuliginea (powdery mildew on cucurbits); conditions: gherkin plants, preventive spray, evaluated 15 days after inoculation
Protocol: as §1, with “gherkin” for “wheat”, “Sphaerotheca fuliginea” for “Puccinia recondita”

Uromyces appendiculatus = test: Example F: in vivo preventive test on Uromyces appendiculatus (bean rust); conditions: bean plants, preventive spray, evaluated 11 days after inoculation
Protocol: as §1, with “bean” for “wheat”, “Uromyces appendiculatus” for “Puccinia recondita”

Botrytis cinerea = test: Example A: in vivo preventive test on Botrytis cinerea (grey mould); conditions: gherkin plants, preventive spray, evaluated 4 to 5 days after inoculation
Protocol: as §1, with “gherkin” for “wheat”, “Botrytis cinerea” for “Puccinia recondita”

[1] = tested on: Blumeria graminis f. sp. hordei; test: Example G: Blumeria test (barley)/preventive; type: in vivo; conditions: 500 ppm of active ingredient, preventive, evaluated 7 days after inoculation
Protocol: Solvent: 49 parts by weight of N,N-dimethylacetamide Emulsifier: 1 part by weight of alkylaryl polyglycol ether To produce a suitable preparation of active compound, 1 part by weight of active compound or active compound combination is mixed with the stated amounts of solvent and emulsifier, and the concentrate is diluted with water to the desired concentration. To test for preventive activity, young plants are sprayed with the preparation of active compound or active compound combination at the stated rate of application. After the spray coating has been dried, the plants are dusted with spores of Blumeria graminis f. sp. hordei.

[2] = tested on: Fusarium nivale (var. majus); test: Example J: Fusarium nivale (var. majus)-test (wheat)/preventive; type: in vivo; conditions: 500 ppm of active ingredient, preventive, evaluated 5 days after inoculation
Protocol: Solvent: 49 parts by weight of N,N-dimethylacetamide
Emulsifier: 1 part by weight of alkylaryl polyglycol ether
To produce a suitable preparation of active compound, 1 part by weight of active compound or active compound combination is mixed with the stated amounts of solvent and emulsifier, and the concentrate is diluted with water to the desired concentration.
To test for preventive activity, young plants are sprayed with the preparation of active compound or active compound combination at the stated rate of application.
After the spray coating has been dried, the plants are slightly injured by using a sandblast and afterwards they are sprayed with a conidia suspension of Fusarium nivale (var. majus).
The plants are placed in the greenhouse under a translucent incubation cabinet at a temperature of approximately 10° C. and a relative atmospheric humidity of approximately 100%.
The test is evaluated 5 days after the inoculation. 0% means an efficacy which corresponds to that of the untreated control, while an efficacy of 100% means that no disease is observed.

| LogP (pH 2.7) | SMILES | Eff. % (Puccinia recondita; 500 ppm of active ingredient) [%] | Eff. % (Septoria tritici; 500 ppm of active ingredient) [%] | Eff. % (Sphaerotheca fuliginea; 500 ppm of active ingredient) [%] | Eff. % (Uromyces appendiculatus; 500 ppm of active ingredient) [%] | further results |
| --- | --- | --- | --- | --- | --- | --- |
| 2.29^[a] | OC(CCc1ccccc1Cl)(Cc1ccncc1Cl)Cn1cncn1 (racemic) [Example I-68] | 94 | 100 | 100 | 100 | Eff. % (Pyrenophora teres; 500 ppm of active ingredient): 71% |
| 2.28^[a] | OC(Cc1ncccc1Cl)(Cn1cncn1)C1(Cl)CC1 (stereo not shown) [Example I-2] | 94 | 100 | 95 | 100 | Eff. % (Botrytis cinerea; 500 ppm of active ingredient): 94% |
|  | CC(Oc1ccc(Cl)cc1)C(O)(Cc1cccnc1Cl)Cn1cncn1 (stereo not shown) [Example I-16] |  |  |  |  | Eff. % (Botrytis cinerea; 100 ppm of active ingredient): 87%; Eff. % (Puccinia recondita; 100 ppm of active ingredient): 75%; Eff. % (Septoria tritici; 100 ppm of active ingredient): 98%; Eff. % (Sphaerotheca fuliginea; 100 ppm of active ingredient): 100%; Eff. % (Uromyces appendiculatus; 100 ppm of active ingredient): 91% |
| 2.76^[a] | OC(Cc1cc(Cl)cc(Cl)n1)(Cn1cncn1)C1(Cl)CC1 (stereo not shown) [Example I-17] |  |  |  |  | Eff. % (Septoria tritici; 100 ppm of active ingredient): 97%; Eff. % (Sphaerotheca fuliginea; 100 ppm of active ingredient): 100%; Eff. % (Uromyces appendiculatus; 100 ppm of active ingredient): 94% |
| 2.23^[a] | OC(Cc1ccc(Cl)cn1)(Cn1cncn1)C1(Cl)CC1 (racemic) [Example I-67] | 98 | 100 | 98 | 100 | Eff. % (Botrytis cinerea; 500 ppm of active ingredient): 99%; Eff. % (Pyrenophora teres; 500 ppm of active ingredient): 86% |
| 2.46^[a] | OC(Cc1ccccc1F)(Cc1cc(F)ncc1Cl)Cn1cncn1 (racemic) [Example I-64] | 83 | 97 | 100 | 94 |  |
| 1.10^[a] | OC(Cc1ccncn1)(Cn1cncn1)C1(Cl)CC1 (stereo not shown) [Example I-50] | 94 | 100 | 100 | 100 | Eff. % (Botrytis cinerea; 500 ppm of active ingredient): 100%; Eff. % (Pyrenophora teres; 500 ppm of active ingredient): 79% |
| 0.91^[a] | OC(Cc1ccncc1F)(Cn1cncn1)c1cccnc1Cl (stereo not shown) [Example I-23] |  |  |  |  | Eff. % (Sphaerotheca fuliginea; 100 ppm of active ingredient): 88%; Eff. % (Uromyces appendiculatus; 100 ppm of active ingredient): 92% |
| 3.58^[a] | OC(Cc1cc(Cc2ccc(Cl)c(Cl)n2)cc(Cl)n1)(Cn1cncn1)C1(Cl)CC1 (stereo not shown) [Example I-32] |  |  |  |  | Eff. % (Puccinia recondita; 100 ppm of active ingredient): 75% |
| 1.93^[a] | OC(Cc1ccc(F)cc1)(Cc1ccncc1Cl)Cn1cncn1 (racemic) [Example I-75] | 81 | 100 | 100 |  |  |
| 1.64^[a] | OC(Cc1ccc2ccccc2n1)(Cn1cncn1)C1(Cl)CC1 (stereo not shown) [Example I-1] |  |  |  |  | Eff. % (Pyrenophora teres; 100 ppm of active ingredient): 83%; Eff. % (Uromyces appendiculatus; 100 ppm of active ingredient): 80% |
| 2.53^[a] | OC(Cc1cc(Cl)cnc1Cl)(Cn1cncn1)C1(Cl)CC1 (racemic) [Example I-83] | 100 | 100 | 100 | 100 | Eff. % (Botrytis cinerea; 500 ppm of active ingredient): 100%; Eff. % (Pyrenophora teres; 500 ppm of active ingredient): 88% |
| 0.52^[a] | Cc1cccc(CC(O)(Cn2cncn2)C2(Cl)CC2)n1 (stereo not shown) [Example I-48] |  |  | 83 | 81 |  |
|  | OC(Cc1ccncc1Cl)(Cn1cncn1)c1ccc2oc3ccccc3c2c1 (racemic) [Example I-80] | 88 | 100 | 100 | 99 | LogP (method [a]: LC-MS at pH 2.7, 0.1% formic acid in water / acetonitrile gradient): 2.40^[a] |
| 3.08^[a] | OC(Cc1cc(Oc2ccc(Cl)cc2)nnc1Cl)(Cn1cncn1)C1(Cl)CC1 (stereo not shown) [Example I-55] | 79 | 100 | 100 | 98 |  |
| 1.76^[a] | CC(C)(CCl)C(O)(Cc1ccncc1Cl)Cn1cncn1 (racemic) [Example I-90] |  | 78 | 100 |  | Eff. % (Botrytis cinerea; 500 ppm of active ingredient): 100%; LogP (pH 7.8): 1.96^[b]; |
| 1.54^[a] | OC(Cc1ccnc(Cl)c1F)(Cn1cncn1)c1cccnc1Cl (stereo not shown) [Example I-59] | 98 | 100 | 100 | 100 |  |
| 1.23^[a] | OC(Cc1ccncc1Cl)(Cn1cncn1)c1cccnc1Cl (stereo not shown) [Example I-14] |  |  |  |  | Eff. % (Sphaerotheca fuliginea; 100 ppm of active ingredient): 100%; Eff. % (Uromyces appendiculatus; 100 ppm of active ingredient): 87% |
| 2.48^[a] | CC(C)(Oc1ccc(F)cc1)C(O)(Cc1ccncc1Cl)Cn1cncn1 (racemic) [Example I-91] | 89 | 100 | 98 | 97 | Eff. % (Botrytis cinerea; 500 ppm of active ingredient): 95%; LogP (pH 7.8): 2.60^[b]; |
| 1.23^[a] | OC(Cc1ccnc(Cl)c1F)(Cn1cncn1)C1(F)CC1 (racemic) [Example I-87] | 89 | 83 | 72 | 78 |  |
| 2.02^[a] | OC(Cc1cccc(Cl)c1)(Cc1ccnc(Cl)c1F)Cn1cncn1 (racemic) [Example I-88] | 89 | 100 | 98 |  |  |
| 3.53^[a] | Cc1cccc2cc(CC(O)(Cn3cncn3)C3(Cl)CC3)c(Cl)nc12 (racemic) [Example I-84] | 88 |  |  | 100 | Eff. % (Septoria tritici; 100 ppm of active ingredient): 81% |
| 2.30^[a] | OC(Cc1cc(F)ncc1Cl)(Cn1cncn1)C1(Cl)CC1 (racemic) [Example I-89] | 100 | 100 | 100 | 100 | Eff. % (Botrytis cinerea; 500 ppm of active ingredient): 100%; Eff. % (Pyrenophora teres; 500 ppm of active ingredient): 100% |
| 0.99^[a] | OC(Cc1ccncc1F)(Cn1cncn1)c1ccc(Cl)nc1 (stereo not shown) [Example I-24] |  |  |  |  | Eff. % (Sphaerotheca fuliginea; 100 ppm of active ingredient): 94%; Eff. % (Uromyces appendiculatus; 100 ppm of active ingredient): 92% |
| 1.89^[a] | CC(CF)(CF)C(O)(Cc1cc(Cl)ncc1F)Cn1cncn1 (stereo not shown) [Example I-44] |  |  |  |  | Eff. % (Sphaerotheca fuliginea; 100 ppm of active ingredient): 100%; Eff. % (Uromyces appendiculatus; 100 ppm of active ingredient): 94% |
| 2.88^[a] | OC(Cc1cncc(Oc2ccc(Cl)cc2)n1)(Cn1cncn1)C1(Cl)CC1 (stereo not shown) [Example I-56] | 86 | 92 | 100 | 96 | Eff. % (Pyrenophora teres; 500 ppm of active ingredient): 88% |
| 1.86^[a] | OC(COc1ccc(F)cc1)(Cc1ccncc1Cl)Cn1cncn1 (racemic) [Example I-79] | 98 | 100 | 100 | 100 | Eff. % (Botrytis cinerea; 500 ppm of active ingredient): 99% |
| 1.66^[a] | OC(Cc1cc(Cl)ncc1F)(Cn1cncn1)C1(F)CC1 (stereo not shown) [Example I-41] |  |  |  |  | Eff. % (Sphaerotheca fuliginea; 100 ppm of active ingredient): 100%; Eff. % (Uromyces appendiculatus; 100 ppm of active ingredient): 94% |
| 1.88^[a] | COc1nccnc1CC(O)(Cn1cncn1)C1(Cl)CC1 (racemic) [Example I-72] |  | 80 | 98 | 100 |  |

| SMILES | LogP (pH 2.7) | Eff. % (Puccinia recondita; 500 ppm of active ingredient) [%] | Eff. % (Septoria tritici; 500 ppm of active ingredient) [%] | Eff. % (Sphaerotheca fuliginea; 500 ppm of active ingredient) [%] | Eff. % (Uromyces appendiculatus; 500 ppm of active ingredient) [%] | further results |
| --- | --- | --- | --- | --- | --- | --- |
| OC(Cc1ncnc(Cl)c1Cl)(Cn1cncn1)C1(Cl)CC1 (stereo not shown) [Example I-57] | 2.28^[a] | 86 | 92 | 95 | 96 | Eff. % (Pyrenophora teres; 500 ppm of active ingredient): 88%; Eff. % [1]: 100%; Eff. % [2]: 71% |

From patent US9822099B2, “Triazole derivatives” (priority 2013, dated 2017)
